In patent USRE40594E1, “Inhibitors of the bitter taste response” (Mount Sinai School of Medicine of New York University, priority 1998, dated 2008):
Entries after “also recorded” stand apart in the source; their conditions may differ.

Tests used:
rhodopsin = target: T1, rhodopsin (Bos taurus, UniProt P02699); test: Rhodopsin-mediated activation of transducin (trypsin sensitivity assay, receptor specificity control); type: biochemical, bovine; settings: 0.001 mM rhodopsin; AMP 0.25, 0.5, 1.25, 2.5, 5.0 mM; FIG. 1D
T1 construct: Rhodopsin was purified in the light as 6 M urea-washed bovine rod outer segments; from tissue; host or cells: bovine rod outer segments (6 M urea-washed)
Procedure: G Protein Activation Assays. Bovine (Bos primigenius) tongues were collected fresh from a local slaughterhouse and transported on ice to the laboratory. Circumvallate papillae were hand dissected, frozen in liquid nitrogen, and stored at −80° C. until use. The collected taste tissues were homogenized, particulates removed by centrifugation, and enriched taste cell membranes collected as described (Ming, D., et al., 1998, Proc. Natl. Acad. Sci. U.S.A. 95:8933-8938). The pelleted membranes were rinsed twice, resuspended in homogenization buffer lacking protease inhibitors, and further homogenized by 20 passages through a 25-gauge needle. Aliquots were either flash frozen or stored on ice until use. The concentration of protein in the membrane preparations was determined by the Peterson modification of the micro-Lowry method (Peterson, G. L., 1977, Anal. Biochem. 83:346-356). Activation of transducin was based on the published trypsin sensitivity procedure (Ming, D., et al., 1998, Proc. Natl. Acad. Sci. U.S.A. 95:8933-8938, Neer, E. J., et al., 1994, Methods Enzymol. 237:226-239). After the trypsin digestion, samples were diluted with Laemmli buffer (Laemmli. U. K., 1970, Nature (London) 227:680-685) and separated by SDS/PAGE by using a 4-20% gel and Tris-glycine buffer. […]

C57BL/6J mice = test: Forty-eight-hour two-bottle preference test (behavioral assay); type: in vivo
Procedure: Behavioral Assays. Multiple sets of male C57BL/6J mice from the Jackson Laboratory were tested. Each set (n=10) was tested with tastant±AMP or GMP. Between tests, mice were provided with acidified water (pH 4.5) for about 2 wk. Tested mice ranged in age from 8 to 20 wk. Mice were individually housed, provided with food ad libitum (Pico Lab Mouse Diet 20 no. 5058; PMI Feeds, St. Louis, Mo.) and presented with distilled water in two sipper bottles for 48 h before testing. During each 48-h test period, a given concentration of tastant was provided in one sipper bottle, whereas the other had distilled water. After 24 h, volumes consumed were recorded, the bottles refilled, and positions reversed (to control for positional cues). Tastants were presented in ascending concentration. Preference ratios were calculated as the fraction of tastant consumed as a percentage of the total volume of liquid consumed. Mean preference ratios and Student's t tests were calculated from total collected data.

[1] = test system: glossopharyngeal nerve responses of C57BL/6J mice; test: Glossopharyngeal nerve recording on lingual stimulation with tastants; type: in vivo
Procedure: Nerve Recording. Glossopharyngeal nerve responses were recorded from male C57BL/6J mice as previously described (Ninomiya, Y., et al., 1997, Am. J. Physiol. (London) 272:R1002-RI006). Each mouse was anesthetized with intraperitoneal injection of sodium pentobarbital (40-50 mg/kg) and maintained at a surgical level of anesthesis with supplemental injections of the drug. The trachea was cannulated, and the mouse was then fixed in the supine position with a head holder to allow dissection of the glossopharyngeal nerve. The hypoglossal nerve was transected bilaterally to prevent inadvertent tongue movements. The right glossopharyngeal nerve was exposed by removal of the digastric muscle and posterior horn of the hyoid bone. The glossopharyngeal nerve was then dissected free from underlying tissues and cut near its entrance to the posterior foramen lacerum. The entire nerve was placed on a silver wire electrode for whole nerve recording. An indifferent electrode was positioned nearby in the wound. […] Whole nerve responses were integrated by using an RMS-DC converter (Hendrick, Tallahassee, Fla.) with a time constant of 0.5 s. For chemical stimulation of the circumvallate and foliate papillae, an incision was made on each side of the animal's face from the comer of the mouth to just above the angle of the jaw, the papillae were exposed, and their trenches opened via slight tension applied through a small suture sewn in the tip of the tongue. Tastant solutions were delivered to the tongue by gravity flow, and flowed over the tongue for a controlled period. The stability of each preparation was monitored by the periodic application of 0.1 M NH4Cl. A recording was considered to be stable when the 0.1 M NH4Cl response magnitudes at the beginning and end of each stimulation series deviated by no more than 15%. Only responses from stable recordings were used in the data analysis. In the analysis of whole nerve responses, the magnitudes of the integrated response at 20, 25, 30, 35. and 40 s after stimulus onset were measured and averaged to generate tonic responses: the tonic response represents the sustained nerve response to continuous tastant stimulation of taste receptor cells. The relative tonic response for each stimulus was obtained by normalization to the response from 0.1 M NH4Cl (the tonic response of NH4Cl was defined as 1.0). Student's t test was used for statistical analysis.

[2] = DEN, QUI and other bitter compounds

T1 sequence (P02699 whole entry): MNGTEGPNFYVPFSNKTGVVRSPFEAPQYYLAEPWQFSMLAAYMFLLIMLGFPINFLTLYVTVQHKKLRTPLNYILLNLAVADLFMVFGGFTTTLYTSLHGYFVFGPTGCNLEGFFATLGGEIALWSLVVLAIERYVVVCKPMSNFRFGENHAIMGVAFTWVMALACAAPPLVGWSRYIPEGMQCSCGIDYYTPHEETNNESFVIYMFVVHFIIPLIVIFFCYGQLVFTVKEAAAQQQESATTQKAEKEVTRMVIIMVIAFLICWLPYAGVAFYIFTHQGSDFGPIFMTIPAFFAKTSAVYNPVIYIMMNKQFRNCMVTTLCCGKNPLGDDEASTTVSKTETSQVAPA

Nc1ncnc2c1ncn2[C@@H]1O[C@H](COP(=O)(O)O)[C@@H](O)[C@H]1O [AMP, adenosine 5′ monophosphate]
inhibition of activation of transducin by rhodopsin (rhodopsin): does not inhibit; also recorded: did not inhibit
shift of DEN dose-aversiveness curve (C57BL/6J mice; AMP 0.1, 1.0, 5.0 mM, FIG. 3B): shifted the dose-aversiveness curve to the right
concentration at which AMP alone elicits behavioral responses (C57BL/6J mice; AMP alone, two-bottle preference, FIG. 3B): ≥ 0.5 mM
inhibitory effect on aversive responses at highest concentration of DEN (C57BL/6J mice; DEN 5.0 mM, FIGS. 3A-B): eliminated; also recorded: overcame
inhibition of aversive responses to DEN (C57BL/6J mice; DEN 0.05, 0.10, 0.50, 1.0 mM, inhibitor 0.1 and 1.0 mM, n=10, P<0.001, FIG. 3A): inhibited
inhibition of behavioral (aversive) responses to bitter compounds, summary statement (C57BL/6J mice; [2]): blocks
effect on behavioral responses to HCl (C57BL/6J mice; HCl 0.01 and 0.10 mM, 0.1 mM AMP, FIG. 3E): did not alter; also recorded: did not affect
effect on behavioral responses to NaCl (C57BL/6J mice; NaCl 0.1 and 0.3 M, 0.1 mM AMP, FIG. 3E): did not alter; also recorded: did not affect
inhibitory effect on aversive responses at highest concentration of QUI (C57BL/6J mice; QUI 1.0 mM, FIGS. 3C-D): eliminated; also recorded: overcame
inhibition of aversive responses to QUI (C57BL/6J mice; QUI 0.05, 0.10, 0.50 mM, inhibitor 0.1 and 0.5 mM, n=10, P<0.001, FIG. 3C): inhibited
effect on behavioral responses to SC45647 (C57BL/6J mice; SC45647 0.01 and 0.10 mM, 0.1 mM AMP, FIG. 3E): did not alter; also recorded: did not affect; also recorded: did not diminish
inhibition of aversive responses to sparteine (SPA) (C57BL/6J mice; SPA 0.05 and 0.10 mM, 0.1 mM AMP, P<0.001, FIG. 3E): inhibited
inhibition of aversive responses to (−)-epicatechin (C57BL/6J mice; epicatechin 0.05 and 0.10 mM, 0.1 mM AMP, P<0.01, FIG. 3E): inhibited
shift of QUI dose-aversiveness curve (C57BL/6J mice; increasing concentrations of AMP, FIG. 3D): shifted the dose-aversiveness curve to the right
effect on behavioral responses to sucrose (C57BL/6J mice; sucrose 5.0 and 150 mM, 0.1 mM AMP, FIG. 3E): did not alter; also recorded: did not affect
inhibition of glossopharyngeal nerve responses to atropine ([1]; 1.0 mM ATR, inhibitor 0.1 mM, FIGS. 4A-C): significantly inhibited
inhibition of glossopharyngeal nerve responses to sparteine ([1]; 1.0 mM SPA, inhibitor 0.1 mM, FIGS. 4A-C, 4I (P<0.001)): inhibits; also recorded: significantly inhibited
inhibition of glossopharyngeal nerve responses to strychnine ([1]; 1.0 mM STR, inhibitor 0.1 mM, FIGS. 4A-C): significantly inhibited
effect on glossopharyngeal nerve responses to SC45647 ([1]; 3.0 mM SC45647, 0.1 mM AMP, P<0.01, FIG. 4I): inhibits; also recorded: inhibited slightly; also recorded: did diminish
inhibition of glossopharyngeal nerve responses to DEN ([1]; 5.0 mM DEN, inhibitor 0.1 mM, FIGS. 4A-C): significantly inhibited
effect on glossopharyngeal nerve responses to HCl ([1]; 5.0 mM HCl, 0.1 mM AMP, FIG. 4I): did not affect
effect on glossopharyngeal nerve responses to NH4Cl ([1]; 0.1 M NH4Cl, 0.1 mM AMP): did not affect
effect on glossopharyngeal nerve responses to NaCl ([1]; 0.1 M NaCl, 0.1 mM AMP, FIG. 4I): did not affect
effect on glossopharyngeal nerve responses to sucrose ([1]; 0.5 M sucrose, 0.1 mM AMP, FIG. 4I): did not affect
inhibition of relative tonic glossopharyngeal responses to rising DEN concentrations ([1]; DEN 0.1, 0.5, 1.0, 5.0, 10.0 mM, AMP 0.1 and 1.0 mM, n=5 to 7, FIG. 4G): significantly inhibited
inhibition of gustatory (glossopharyngeal) nerve responses to bitter compounds, summary statement [1, 2]: diminishes
inhibition of relative tonic glossopharyngeal responses to rising QUI concentrations ([1]; QUI 0.1, 0.3, 1.0 mM, AMP 0.1 and 1.0 mM, n=6 to 8, FIG. 4H): significantly inhibited; also recorded: reached a plateau
inhibition of glossopharyngeal nerve responses to QUI ([1]; QUI 0.1 and 1.0 mM, inhibitor 0.1 mM, FIGS. 4D-F): significantly inhibited
